Laboratory results taken from PubChem BioAssay AID248 (DTP/NCI, 2004).
Values joined by “and” are separate entries in the source; they are usually repeats but may differ in a detail not shown here. Equal entries are not always repeated. Toxic doses and inconclusive results are not listed. Cut-off read from the data, not from the text of the source: active = T/C of 150% or more; inactive = T/C below 125%.

Test system: L1210 leukemia ip in BDF1 mice, survival T/C
Experiment: NCI In Vivo Anticancer Drug Screen. Data for tumor model L1210 Leukemia (intraperitoneal) in B6D2F1 (BDF1) mice
Settings: endpoint: mean survival time, higher = longer survival
Outline: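 Mice bearing the transplanted tumor received compound or vehicle. Survival of the treated group was divided by that of the vehicle-treated control group to give the ratio.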

[1] = dose: 50.0 mg/kg/injection, schedule: Q01DX009 (ip), vehicle: saline with Tween-80
[2] = dose: 100.0 mg/kg/injection, schedule: Q01DX009 (ip), vehicle: Klucel (hydroxypropylcellulose) (HPC)
[3] = dose: 100.0 mg/kg/injection, schedule: Q04DX003 (ip), vehicle: Klucel (hydroxypropylcellulose) (HPC)
[4] = dose: 200.0 mg/kg/injection, schedule: Q01DX009 (ip), vehicle: Klucel (hydroxypropylcellulose) (HPC)
[5] = dose: 200.0 mg/kg/injection, schedule: Q04DX003 (ip), vehicle: Klucel (hydroxypropylcellulose) (HPC)
[6] = dose: 400.0 mg/kg/injection, schedule: Q01DX009 (ip), vehicle: Klucel (hydroxypropylcellulose) (HPC)
[7] = dose: 400.0 mg/kg/injection, schedule: Q04DX003 (ip), vehicle: Klucel (hydroxypropylcellulose) (HPC)
[8] = dose: 100.0 mg/kg/injection, schedule: Q01DX009 (ip), vehicle: saline with Tween-80
[9] = dose: 200.0 mg/kg/injection, schedule: Q01DX009 (ip), vehicle: saline with Tween-80
[10] = dose: 400.0 mg/kg/injection, schedule: Q01DX009 (ip), vehicle: saline with Tween-80
[11] = dose: 100.0 mg/kg/injection, schedule: Q01DX009 (ip), vehicle: saline
[12] = dose: 100.0 mg/kg/injection, schedule: Q04DX003 (ip), vehicle: saline
[13] = dose: 200.0 mg/kg/injection, schedule: Q01DX009 (ip), vehicle: saline
[14] = dose: 12.5 mg/kg/injection, schedule: Q01DX009 (ip), vehicle: saline
[15] = dose: 25.0 mg/kg/injection, schedule: Q01DX009 (ip), vehicle: saline
[16] = dose: 50.0 mg/kg/injection, schedule: Q01DX009 (ip), vehicle: saline

Measured: T/C

Clc1nc(SC2=NCCN2)c2[nH]cnc2n1
inactive: dose: 10.0 mg/kg/injection, schedule: Q01DX009 (ip), vehicle: saline with Tween-80 108 % of control | dose: 12.5 mg/kg/injection, schedule: Q01DX009 (ip), vehicle: saline with Tween-80 102 % of control | dose: 12.5 mg/kg/injection, schedule: Q04DX003 (ip), vehicle: saline with Tween-80 106 % of control | dose: 20.0 mg/kg/injection, schedule: Q01DX009 (ip), vehicle: saline with Tween-80 101 % of control | dose: 25.0 mg/kg/injection, schedule: Q01DX009 (ip), vehicle: saline with Tween-80 104 % of control | dose: 25.0 mg/kg/injection, schedule: Q04DX003 (ip), vehicle: saline with Tween-80 106 % of control | dose: 40.0 mg/kg/injection, schedule: Q01DX009 (ip), vehicle: saline with Tween-80 100 % of control | [1] 113 % of control | dose: 50.0 mg/kg/injection, schedule: Q04DX003 (ip), vehicle: saline with Tween-80 107 % of control

O=C1CCN(CCN2CCC(=O)N(Cc3ccccc3)C2=S)C(=S)N1Cc1ccccc1
inactive: dose: 100.0 mg/kg/injection, schedule: Q04DX002 (ip), vehicle: Klucel (hydroxypropylcellulose) (HPC) 100 % of control | dose: 200.0 mg/kg/injection, schedule: Q04DX002 (ip), vehicle: Klucel (hydroxypropylcellulose) (HPC) 107 % of control | dose: 400.0 mg/kg/injection, schedule: Q04DX002 (ip), vehicle: Klucel (hydroxypropylcellulose) (HPC) 96 % of control

CN(C)C=Nc1ccccc1
inactive: [2] 109 % of control | [3] 111 % of control | [4] 101 % of control | [5] 97 % of control | [6] 100 % of control | [7] 93 % of control

CC1CCCCN1C(=O)Nc1ccccc1C(F)(F)F (stereo not drawn)
inactive: dose: 100.0 mg/kg/injection, schedule: Q01DX001 (ip), vehicle: saline with Tween-80 96 % of control and 97 % of control | [8] 100 % of control and 119 % of control | dose: 100.0 mg/kg/injection, schedule: Q04DX002 (ip), vehicle: saline with Tween-80 96 % of control and 86 % of control | dose: 100.0 mg/kg/injection, schedule: Q04DX003 (ip), vehicle: saline with Tween-80 99 % of control and 91 % of control | dose: 200.0 mg/kg/injection, schedule: Q01DX001 (ip), vehicle: saline with Tween-80 97 % of control and 100 % of control | [9] 106 % of control and 107 % of control | dose: 200.0 mg/kg/injection, schedule: Q04DX002 (ip), vehicle: saline with Tween-80 96 % of control and 99 % of control | dose: 200.0 mg/kg/injection, schedule: Q04DX003 (ip), vehicle: saline with Tween-80 95 % of control and 101 % of control | dose: 400.0 mg/kg/injection, schedule: Q01DX001 (ip), vehicle: saline with Tween-80 100 % of control and 90 % of control | [10] 93 % of control and 116 % of control | dose: 400.0 mg/kg/injection, schedule: Q04DX002 (ip), vehicle: saline with Tween-80 95 % of control and 100 % of control | dose: 400.0 mg/kg/injection, schedule: Q04DX003 (ip), vehicle: saline with Tween-80 91 % of control

CCC(=O)C(CC)c1ccc(OC)cc1OC (stereo not drawn)
inactive: [2] 93 % of control | [3] 103 % of control | [4] 95 % of control | [5] 101 % of control | [6] 98 % of control | [7] 103 % of control

CCC(Cc1ccccc1Br)C1=NC(C)(C)CO1 (stereo not drawn)
inactive: [11] 90 % of control | [12] 105 % of control | [13] 90 % of control | dose: 200.0 mg/kg/injection, schedule: Q04DX003 (ip), vehicle: saline 107 % of control | dose: 400.0 mg/kg/injection, schedule: Q01DX009 (ip), vehicle: saline 106 % of control | dose: 400.0 mg/kg/injection, schedule: Q04DX003 (ip), vehicle: saline 100 % of control

Cc1cccc(N2CCC3(CC2)C(=O)NC(=O)NC3=O)c1
inactive: dose: 100.0 mg/kg/injection, schedule: Q01DX001 (ip), vehicle: saline 94 % of control | dose: 200.0 mg/kg/injection, schedule: Q01DX001 (ip), vehicle: saline 97 % of control | dose: 400.0 mg/kg/injection, schedule: Q01DX001 (ip), vehicle: saline 100 % of control

O=C(Nc1ccc(C2=NCCO2)cc1)c1ccc(C(=O)Nc2ccc(C3=NCCO3)cc2)cc1
inactive: dose: 15.0 mg/kg/injection, schedule: Q01DX Z (ip), vehicle: carboxymethylcellulose (CMC) 105 % of control | dose: 30.0 mg/kg/injection, schedule: Q01DX Z (ip), vehicle: carboxymethylcellulose (CMC) 96 % of control | dose: 60.0 mg/kg/injection, schedule: Q01DX Z (ip), vehicle: carboxymethylcellulose (CMC) 91 % of control | dose: 120.0 mg/kg/injection, schedule: Q01DX Z (ip), vehicle: carboxymethylcellulose (CMC) 96 % of control

C/C=C/C=C\COC(=O)C(C)Cl (stereo not drawn)
inactive: dose: 100.0 mg/kg/injection, schedule: Q04DX002 (ip), vehicle: saline 108 % of control | dose: 200.0 mg/kg/injection, schedule: Q04DX002 (ip), vehicle: saline 103 % of control | dose: 400.0 mg/kg/injection, schedule: Q04DX002 (ip), vehicle: saline 108 % of control

CCC(/C=C1\Sc2ccc(C)cc2N1CC)=C\c1sc2ccc(OC)cc2[n+]1CC
inactive: dose: 2.0 mg/kg/injection, schedule: Q01DX001 (ip), vehicle: other 106 % of control | dose: 4.0 mg/kg/injection, schedule: Q01DX001 (ip), vehicle: other 105 % of control

N#Cc1cc2c3c(c1)CCCN3CCC2
inactive: [1] 91 % of control | [8] 93 % of control | [9] 90 % of control | [10] 96 % of control

Cc1ccc(S(=O)(=O)OC2CN3CCC2CC3)cc1 (stereo not drawn)
inactive: [14] 95 % of control | [15] 100 % of control | [16] 101 % of control and 102 % of control

COC(=O)c1cc2ccccc2c2ccccc12
inactive: [8] 94 % of control | [9] 91 % of control | [10] 87 % of control

O=[N+]([O-])c1sc2ccccc2c1Br
inactive: dose: 5.0 mg/kg/injection, schedule: Q04DX002 (ip), vehicle: Klucel (hydroxypropylcellulose) (HPC) 101 % of control | dose: 10.0 mg/kg/injection, schedule: Q04DX002 (ip), vehicle: Klucel (hydroxypropylcellulose) (HPC) 97 % of control | dose: 20.0 mg/kg/injection, schedule: Q04DX002 (ip), vehicle: Klucel (hydroxypropylcellulose) (HPC) 97 % of control

Cc1cc(C)c(S(=O)(=O)O)cc1C
inactive: [16] 92 % of control | [11] 92 % of control | [12] 98 % of control | [13] 88 % of control

CC(=O)c1ccccc1Br
inactive: [4] 100 % of control | [6] 97 % of control

O=S(=O)(F)c1ccc(-c2cc(Cl)c3cc(F)ccc3n2)cc1
inactive: [3] 105 % of control | [5] 106 % of control | [7] 106 % of control

N#Cc1nc2c(nc1C#N)-c1ccccc1/C2=C1/C(=O)Cc2ccccc21
inactive: dose: 25.0 mg/kg/injection, schedule: Q04DX002 (ip), vehicle: other 93 % of control and 90 % of control

CC(C)N(C(=O)Nc1cccc(C(F)(F)F)c1)c1ccccc1
inactive: [2] 106 % of control | [4] 104 % of control | [6] 87 % of control

Cc1ccc(C2NC(=S)N3C(c4ccc(C)cc4)NC(=S)N23)cc1 (stereo not drawn)
inactive: dose: 100.0 mg/kg/injection, schedule: Q01DX009 (ip), vehicle: gum acacia 105 % of control | dose: 100.0 mg/kg/injection, schedule: Q04DX003 (ip), vehicle: gum acacia 95 % of control | dose: 200.0 mg/kg/injection, schedule: Q01DX009 (ip), vehicle: gum acacia 100 % of control | dose: 200.0 mg/kg/injection, schedule: Q04DX003 (ip), vehicle: gum acacia 90 % of control | dose: 400.0 mg/kg/injection, schedule: Q01DX009 (ip), vehicle: gum acacia 91 % of control | dose: 400.0 mg/kg/injection, schedule: Q04DX003 (ip), vehicle: gum acacia 95 % of control

O=C(O)c1cccc2c1C(=O)c1cc(Cl)ccc1-2
inactive: dose: 75.0 mg/kg/injection, schedule: Q01DX001 (ip), vehicle: carboxymethylcellulose (CMC) 96 % of control | dose: 150.0 mg/kg/injection, schedule: Q01DX001 (ip), vehicle: carboxymethylcellulose (CMC) 102 % of control

CCCCOC1CC2c3ccccc3C1c1cccc[n+]12 (stereo not drawn)
inactive: [14] 111 % of control and 102 % of control | dose: 12.5 mg/kg/injection, schedule: Q04DX003 (ip), vehicle: saline 94 % of control and 101 % of control and 100 % of control | [15] 104 % of control and 98 % of control | dose: 25.0 mg/kg/injection, schedule: Q04DX003 (ip), vehicle: saline 100 % of control and 101 % of control | dose: 50.0 mg/kg/injection, schedule: Q04DX003 (ip), vehicle: saline 94 % of control and 88 % of control and 103 % of control
